Source: PubChem BioAssay (NCI)
“And” between values parts separate entries of the source, which are not always exact repeats. Equal values may be shown once.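 Cells were grown in 96-well plates and exposed to each compound for 48 hours at five concentrations; endpoints were interpolated linearly between bracketing concentrations, or set to the highest concentration if not reached. GI50 = concentration required for 50% inhibition of growth. Definition used: TGI = concentration required for complete inhibition of growth.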

Key:
Assay in all cases: growth of human tumour cells (NCI), 48 h
[1] = tested on: SK-MEL-5 melanoma
[2] = tested on: NCI-H522 lung
[3] = tested on: UO-31 renal
[4] = tested on: A498 renal
[5] = tested on: SK-OV-3 ovarian
[6] = tested on: MOLT-4 leukemia
[7] = tested on: OVCAR-3 ovarian
[8] = tested on: COLO 205 colon
[9] = tested on: HS 578T breast
[10] = tested on: SF-295 CNS
[11] = tested on: SF-268 CNS
[12] = tested on: SK-MEL-2 melanoma
[13] = tested on: CCRF-CEM leukemia
[14] = tested on: HCT-15 colon
[15] = tested on: NCI-H226 lung
[16] = tested on: HOP-92 NSCLC
[17] = tested on: SK-MEL-28 melanoma
[18] = tested on: SF-539 CNS
[19] = tested on: NCI-H23 lung
[20] = tested on: PC-3 prostate
[21] = tested on: OVCAR-8 ovarian
[22] = tested on: RXF 393 renal
[23] = tested on: NCI-H460 lung
[24] = tested on: OVCAR-4 ovarian
[25] = tested on: MCF7 breast
[26] = tested on: UACC-257 melanoma
[27] = tested on: MDA-MB-231 breast
[28] = tested on: CAKI-1 renal
[29] = tested on: IGROV1 ovarian
[30] = tested on: HL-60(TB) leukemia
[31] = tested on: UACC-62 melanoma
[32] = tested on: MDA-MB-435
[33] = tested on: LOX IMVI melanoma
[34] = tested on: ACHN renal
[35] = tested on: 786-0 renal
[36] = tested on: OVCAR-5 ovarian
[37] = tested on: EKVX NSCLC
[38] = tested on: NCI/ADR-RES ovarian
[39] = tested on: TK-10 renal
[40] = tested on: MDA-N
[41] = tested on: SN12C renal
[42] = tested on: SW-620 colon
[43] = tested on: SNB-19 CNS
[44] = tested on: U251 CNS
[45] = tested on: SNB-75 CNS
[46] = tested on: HT29 colon
[47] = tested on: KM12 colon
[48] = tested on: M14 melanoma
[49] = tested on: DU-145 prostate
[50] = tested on: SR leukemia
[51] = tested on: HCT-116 colon
[52] = tested on: K-562 leukemia
[53] = tested on: A549 NSCLC
[54] = tested on: BT-549 breast
[55] = tested on: RPMI-8226 leukemia
[56] = tested on: MALME-3M melanoma
[57] = tested on: HCC-2998 colon
[58] = tested on: T-47D breast
[59] = tested on: HOP-62 NSCLC

SMILES: Cc1c2oc3c(C)cc(F)c(C(=O)NC4C(=O)NC(C(C)C)C(=O)N5CCCC5C(=O)N(C)CC(=O)N(C)C(C(C)C)C(=O)OC4C)c3nc-2c(C(=O)NC2C(=O)NC(C(C)C)C(=O)N3CCCC3C(=O)N(C)CC(=O)N(C)C(C(C)C)C(=O)OC2C)c(N)c1=O (stereo not drawn)
- TGI [1]: 0.223 µM
- TGI [2]: 1660 nM and 1950 nM
- GI50 [3]: 458 nM
- TGI [3]: 4.65 µM
- GI50 [4]: 850 nM
- TGI [4]: 0.902 µM
- TGI [5]: > 100 µM
- TGI [6]: 0.00545 µM
- GI50 [7]: 171 nM
- TGI [8]: 286 nM and 354 nM
- GI50 [9]: 500 nM
- TGI [9]: > 100 µM
- TGI [10]: 2.32 µM and 4.16 µM
- TGI [11]: 4.21 µM and 15.3 µM
- TGI [12]: 0.663 µM
- TGI [13]: 38.5 nM and 309 nM
- GI50 [14]: 420 nM
- TGI [14]: > 100 µM
- TGI [15]: 625 nM and 346 nM
- TGI [16]: 887 nM
- TGI [17]: 1310 nM and 988 nM
- TGI [18]: 1410 nM and 727 nM
- TGI [19]: 0.897 µM and 6.26 µM
- TGI [20]: 4.68 µM
- GI50 [21]: 142 nM
- TGI [22]: 0.391 µM
- TGI [23]: 13.5 µM
- GI50 [24]: 559 nM
- TGI [24]: > 100 µM
- TGI [25]: 60.6 µM
- GI50 [26]: 73.2 nM
- GI50 [27]: 18.6 nM
- TGI [27]: 6.8 µM and 2.45 µM
- TGI [28]: 3.73 µM
- TGI [29]: > 100 µM
- TGI [30]: 0.161 µM
- TGI [31]: 492 nM and 154 nM
- TGI [32]: 1420 nM and 1190 nM
- TGI [33]: 0.159 µM
- TGI [34]: 32.5 µM
- TGI [35]: 78.5 µM
- GI50 [36]: 68.8 nM
- TGI [36]: 10.2 µM
- GI50 [37]: 767 nM
- TGI [37]: 46.8 µM
- GI50 [38]: 5.62 µM
- TGI [38]: 91 µM
- GI50 [39]: 1070 nM
- TGI [40]: 1320 nM and 1120 nM
- TGI [41]: > 100 µM
- TGI [42]: 3.77 µM
- TGI [43]: 21.1 µM
- TGI [44]: 25.9 µM
- GI50 [45]: 121 nM
- TGI [45]: 1900 nM and 1750 nM

SMILES: O=c1[nH]c(=O)n(COCc2ccccc2)c2ccccc12
- TGI [1]: > 100 µM
- TGI [3]: > 100 µM
- TGI [46]: > 100 µM
- TGI [4]: > 100 µM
- TGI [5]: > 100 µM
- TGI [6]: > 100 µM
- TGI [7]: > 100 µM
- TGI [8]: > 100000 nM
- TGI [10]: > 100 µM
- TGI [12]: > 100 µM
- TGI [47]: > 100 µM
- TGI [48]: > 100 µM
- TGI [49]: > 100 µM
- TGI [50]: > 100 µM
- TGI [13]: > 100000 nM
- TGI [14]: > 100 µM
- TGI [15]: > 100000 nM
- TGI [51]: > 100 µM
- TGI [16]: > 100000 nM
- TGI [17]: > 100000 nM
- TGI [52]: > 100 µM
- TGI [18]: > 100000 nM
- TGI [20]: > 100 µM
- TGI [21]: > 100 µM
- TGI [22]: 94.5 µM
- TGI [23]: > 100 µM
- TGI [24]: > 100 µM
- TGI [25]: > 100 µM
- TGI [26]: > 100 µM
- TGI [27]: > 100 µM
- TGI [28]: > 100 µM
- TGI [29]: > 100 µM
- TGI [30]: > 100 µM
- TGI [31]: > 100000 nM
- TGI [32]: > 100000 nM
- TGI [33]: > 100 µM
- TGI [53]: > 100 µM
- TGI [34]: > 100 µM
- TGI [35]: > 100 µM
- TGI [36]: > 100 µM
- TGI [37]: > 100 µM
- TGI [38]: 92.7 µM
- TGI [39]: > 100 µM
- TGI [40]: > 100000 nM
- TGI [41]: > 100 µM
- TGI [42]: > 100 µM
- TGI [43]: > 100 µM
- TGI [44]: > 100 µM
- TGI [45]: 54900 nM

SMILES: O=C(Nc1ccc(Oc2ccc(NC(=O)Nc3ccc([N+](=O)[O-])cc3)cc2)cc1)Nc1ccc([N+](=O)[O-])cc1
- GI50 [1]: 1660 nM
- TGI [1]: 3.32 µM
- GI50 [2]: 1030 nM
- TGI [2]: 4320 nM
- GI50 [3]: 516 nM
- TGI [3]: > 26.4 µM
- GI50 [46]: 2000 nM
- TGI [46]: 15.9 µM
- GI50 [4]: 1970 nM
- TGI [4]: 7.23 µM
- GI50 [5]: 2270 nM
- TGI [5]: 7.51 µM
- GI50 [6]: 1190 nM
- TGI [6]: 4.8 µM
- GI50 [7]: 2120 nM
- TGI [7]: > 30.3 µM
- GI50 [8]: 1630 nM
- TGI [8]: 3220 nM
- GI50 [54]: 2060 nM
- TGI [54]: 7.36 µM
- GI50 [9]: 2340 nM
- TGI [9]: 7.98 µM
- GI50 [10]: 1170 nM
- TGI [10]: 17.9 µM
- GI50 [11]: 3.1 µM
- TGI [11]: > 100 µM
- GI50 [55]: 303 nM
- TGI [55]: 1840 nM
- GI50 [12]: 2030 nM
- TGI [12]: 4.29 µM
- GI50 [47]: 1530 nM
- TGI [47]: > 29.7 µM
- GI50 [48]: 2370 nM
- TGI [48]: 11.7 µM
- GI50 [49]: 2440 nM
- TGI [49]: > 100 µM
- GI50 [50]: 1350 nM
- TGI [50]: 4.87 µM
- GI50 [13]: 610 nM
- TGI [13]: 3220 nM
- GI50 [14]: 1910 nM
- TGI [14]: 13.7 µM
- GI50 [15]: 2900 nM
- TGI [15]: 27800 nM
- GI50 [51]: 1170 nM
- TGI [51]: 9.19 µM
- GI50 [56]: 1930 nM
- TGI [56]: 6.81 µM
- TGI [16]: 2070 nM
- GI50 [17]: 3.28 µM
- TGI [17]: 43200 nM
- GI50 [52]: 826 nM
- GI50 [18]: 3.07 µM
- TGI [18]: 20600 nM
- GI50 [19]: 1230 nM
- TGI [19]: 30.8 µM
- GI50 [20]: 1040 nM
- TGI [20]: > 22.8 µM
- GI50 [21]: 3170 nM
- TGI [21]: > 100 µM
- GI50 [22]: 2940 nM
- TGI [22]: > 24.4 µM
- GI50 [23]: 1740 nM
- TGI [23]: 6.61 µM
- GI50 [24]: 2070 nM
- TGI [24]: > 100 µM
- GI50 [25]: 1680 nM
- TGI [25]: 6.22 µM
- GI50 [26]: 2820 nM
- TGI [26]: > 26 µM
- GI50 [27]: 1650 nM
- TGI [27]: 7.2 µM
- GI50 [28]: 2340 nM
- TGI [28]: 7.55 µM
- GI50 [57]: 2280 nM
- TGI [57]: 8.02 µM
- GI50 [29]: 1900 nM
- TGI [29]: 4.71 µM
- GI50 [30]: 787 nM
- TGI [30]: 3.41 µM
- GI50 [31]: 1360 nM
- TGI [31]: 11100 nM
- GI50 [58]: 944 nM
- TGI [58]: 6.74 µM
- GI50 [32]: 2160 nM
- TGI [32]: 8650 nM
- GI50 [33]: 1780 nM
- TGI [33]: 10.7 µM
- GI50 [53]: 2610 nM
- TGI [53]: > 78.8 µM
- GI50 [34]: 1920 nM
- TGI [34]: > 52.6 µM
- GI50 [35]: 3.15 µM
- TGI [35]: > 36.2 µM
- GI50 [36]: 3590 nM
- TGI [36]: > 100 µM
- GI50 [59]: 2640 nM
- TGI [59]: 7.96 µM
- GI50 [37]: 2320 nM
- TGI [37]: > 30.9 µM
- GI50 [38]: 3.88 µM
- TGI [38]: > 91.3 µM
- GI50 [39]: 2110 nM
- TGI [39]: > 26.7 µM
- GI50 [41]: 2160 nM
- TGI [41]: > 84.7 µM
- GI50 [42]: 2510 nM
- TGI [42]: > 56.3 µM
- GI50 [43]: 3.34 µM
- TGI [43]: > 100 µM
- GI50 [44]: 2160 nM
- TGI [44]: 12.5 µM
- GI50 [45]: 2780 nM
- TGI [45]: > 100000 nM
